From patent publication US20070239107A1, “Device and Method for Administering Therapeutic Agents” (priority 2003, published 2007)

Legend:
[1] = Kinetics of NO release from the retention balloon (headspace chemiluminescence); assay type: physicochemical; conditions: balloon filled with ascorbic acid/nitrite solution; NO-free air flush 4.5 L/min
Text: The kinetics of NO release from the retention balloon was monitored in separate experiments. The catheter was placed in the flask and after filling the retention balloon with the ascorbic acid/nitrite solution the flask was closed. Synthetic NO-free air was flushed via an inlet at a rate of 4.5 L/min and headspace NO was continuously measured from an outlet by a rapid-response chemiluminescence system (Aerocrine AB, Stockholm, Sweden).

[2] = test system: E. coli isolated from a patient with urinary tract infection and E. coli ATCC 25992; assay: Viable counts of E. coli in urine surrounding the filled retention balloon; assay type: cell-based; conditions: solution in retention balloon, start 10^5 cfu/ml, 37° C.
E. coli = assay: Comparative experiment with traditional antibiotic in retention balloon or directly in urine
Experimental: An overnight culture was added to 25 ml of urine to a final density of 10^5 CFU/ml. The urine was placed in long-necked 50 ml flasks with a shape resembling the urinary bladder and the urethra. An all-silicone catheter (Argyle, Sherwood Medical, Tullamore, Ireland) was placed in the flask and the retention balloon was filled with 10 ml of saline containing ascorbic acid (10 mM) and sodium nitrite (5 mM). The pH of the solution was adjusted to 2.5 using hydrochloric acid (3 M). Ascorbic acid and nitrite were prepared and mixed immediately before administration. Ascorbic acid solution alone (pH 2.5) was used as control. After filling the retention balloons the catheter was gently pulled outwards and fixed at the neck whereby the flask opening was sealed off. Then the flasks were turned up side down and incubated at 37° C. for 24 h. At the end of the experiment the urine was serially diluted and further cultured on blood agar plates for determination of viable counts (cfu/ml). All experiments were made in quadruplicate.
In a separate flask ciprofloxacin was added directly to the urine.

With `[N]=O` [NO, nitric oxide] as the molecule, how does the “half-time of decrease of NO release rate from the balloons” value [1] read?
Its value is “about 30 min”.

For `O=C1O[C@H]([C@@H](O)CO)C(O)=C1O` [ascorbic acid alone, ascorbic acid], which “bacterial counts after 24 h” value [2] is on record?
The value was 10^8 cfu/ml.

Which “antibacterial effect in urine” value (E. coli; antibiotic added directly to the urine) does the source give for `O=C(O)c1cn(C2CC2)c2cc(N3CCNCC3)c(F)cc2c1=O` [ciprofloxacin] here?
Its value is “effectively killed the bacteria”.

And the “antibacterial effect in the urine surrounding the balloon” value (E. coli; antibiotic placed in the retention balloon)?
The value was “no antibacterial effect”.
